Patent US20120245177A1, “CRYSTALLINE LEVOFOLINIC ACID AND PROCESS FOR ITS PREPARATION” (GMT FINE CHEMICALS SA, priority 2011, published 2012)

Columns and labels:
[1] = Long-term stability test (ICH conditions); format: physicochemical; settings: for Related substances: N^10-CHO-folic acid (D) (% m/m) / Related substances: PABG (A) (% area) / Sum of all relates substances (% area) / Water content (%) / Assay of Levofolinic acid (% m/m) / Appearance / Aspect of a 1.0% m/V solution in Tris solution corrected at pH = 8.1: Absorbance at 420 nm / Related substances: 5-CHO-4H-Pteroic acid (E) (% area) / Related substances: Any individual unknown impurities / Related substances: Dihydrofolic acid (G) (% area) / Related substances: Folic acid (C) (% area) / Related substances: N^5-N^10-diformyl-THF (B) (% area) / Related substances: N^10-CHO-dihydrofolic acid (F) (% area) / Optical rotation of a 1.0% m/V solution in Tris solution corrected at pH = 8.1 / Content of Dextrofolinic acid (H): long-term: 25±2° C., 60±5% relative humidity; for Assay of Levofolinic acid (% m/m): anhydrous and solvent free basis; for Appearance: specification white to pale yellow powder
Experimental: Two specimens of the product obtained in example 1 are subjected to accelerated stability tests and long-term stability tests, respectively; the tests are carried out according to ICH conditions. Long-term: 25±2° C., 60±5% relative humidity Analytical methods used for the stability studies tests are described in the calcium levofolinate monograph of the European Pharmacopoeia.

[2] = Solubility in water or hydroalcoholic mixtures; format: physicochemical; settings: pH range between 3.0 and 4.5
[3] = easily converted into by-products if pH lower than 3.0 or temperature reaches 60° C. during pH lowering; per U.S. Pat. No. 6,441,168 B1; cited from earlier work

SMILES: Nc1nc(=O)c2c([nH]1)NC[C@H](CNc1ccc(C(=O)N[C@@H](CCC(=O)O)C(=O)O)cc1)N2C=O [Example 1, (6S)—N(5)-formyl-5,6,7,8-tetrahydrofolic acid]
- Related substances: N^10-CHO-folic acid (D) (% m/m) ([1]; 6 months): <0.10 % m/m
- Related substances: PABG (A) (% area) ([1]; 6 months): 0.10 % area
- Sum of all relates substances (% area) ([1]; 6 months): 0.70 % area
- Water content (%) ([1]; 6 months): 0.9%
- Assay of Levofolinic acid (% m/m) ([1]; 6 months): 98.8 % m/m
- Appearance ([1]; 6 months): Conform
- Aspect of a 1.0% m/V solution in Tris solution corrected at pH = 8.1: Absorbance at 420 nm ([1]; 9 months): 0.04
- Related substances: 5-CHO-4H-Pteroic acid (E) (% area) ([1]; 9 months): 0.35 % area
- Related substances: Any individual unknown impurities ([1]; 9 months): <0.10 % area
- Related substances: Dihydrofolic acid (G) (% area) ([1]; 9 months): <0.10 % area
- Related substances: Folic acid (C) (% area) ([1]; 9 months): <0.10 % area
- Related substances: N^5-N^10-diformyl-THF (B) (% area) ([1]; 9 months): <0.10 % area
- Related substances: N^10-CHO-dihydrofolic acid (F) (% area) ([1]; 9 months): 0.15 % area
- Related substances: N^10-CHO-folic acid (D) (% m/m) ([1]; 9 months): <0.10 % m/m
- Related substances: PABG (A) (% area) ([1]; 9 months): <0.10 % area
- Sum of all relates substances (% area) ([1]; 9 months): 0.55 % area
- Water content (%) ([1]; 9 months): 1.0%
- Assay of Levofolinic acid (% m/m) ([1]; 9 months): 99.4 % m/m
- Appearance ([1]; 9 months): Conform
- Aspect of a 1.0% m/V solution in Tris solution corrected at pH = 8.1: Absorbance at 420 nm ([1]; 12 months): 0.06
- Related substances: 5-CHO-4H-Pteroic acid (E) (% area) ([1]; 12 months): 0.34 % area
- Related substances: Any individual unknown impurities ([1]; 12 months): <0.10 % area
- Related substances: Dihydrofolic acid (G) (% area) ([1]; 12 months): <0.10 % area
- Related substances: Folic acid (C) (% area) ([1]; 12 months): <0.10 % area
- Related substances: N^5-N^10-diformyl-THF (B) (% area) ([1]; 12 months): <0.10 % area
- Related substances: N^10-CHO-dihydrofolic acid (F) (% area) ([1]; 12 months): 0.18 % area
- Related substances: N^10-CHO-folic acid (D) (% m/m) ([1]; 12 months): <0.10 % m/m
- Related substances: PABG (A) (% area) ([1]; 12 months): 0.11 % area
- Sum of all relates substances (% area) ([1]; 12 months): 0.63 % area
- Water content (%) ([1]; 12 months): 1.1%
- Assay of Levofolinic acid (% m/m) ([1]; 12 months): 99.4 % m/m
- Appearance ([1]; 12 months): Conform
- Aspect of a 1.0% m/V solution in Tris solution corrected at pH = 8.1: Absorbance at 420 nm ([1]; 18 months): 0.05
- Optical rotation of a 1.0% m/V solution in Tris solution corrected at pH = 8.1 ([1]; 18 months): −13.1°
- Related substances: 5-CHO-4H-Pteroic acid (E) (% area) ([1]; 18 months): 0.36 % area
- Related substances: Any individual unknown impurities ([1]; 18 months): <0.10 % area
- Related substances: Dihydrofolic acid (G) (% area) ([1]; 18 months): <0.10 % area
- Related substances: Folic acid (C) (% area) ([1]; 18 months): <0.10 % area
- Related substances: N^5-N^10-diformyl-THF (B) (% area) ([1]; 18 months): <0.10 % area
- Related substances: N^10-CHO-dihydrofolic acid (F) (% area) ([1]; 18 months): 0.17 % area
- Related substances: N^10-CHO-folic acid (D) (% m/m) ([1]; 18 months): <0.10 % m/m
- Related substances: PABG (A) (% area) ([1]; 18 months): 0.11 % area
- Sum of all relates substances (% area) ([1]; 18 months): 0.63 % area
- Water content (%) ([1]; 18 months): 0.9%
- Assay of Levofolinic acid (% m/m) ([1]; 18 months): 100.2 % m/m
- Appearance ([1]; 18 months): Conform
- Aspect of a 1.0% m/V solution in Tris solution corrected at pH = 8.1: Absorbance at 420 nm ([1]; 24 months): 0.06
- Content of Dextrofolinic acid (H) ([1]; 24 months): <0.10%
- Related substances: 5-CHO-4H-Pteroic acid (E) (% area) ([1]; 24 months): 0.31 % area
- Related substances: Any individual unknown impurities ([1]; 24 months): <0.10 % area
- Related substances: Dihydrofolic acid (G) (% area) ([1]; 24 months): <0.10 % area
- Related substances: Folic acid (C) (% area) ([1]; 24 months): <0.10 % area
- Related substances: N^5-N^10-diformyl-THF (B) (% area) ([1]; 24 months): <0.10 % area
- Related substances: N^10-CHO-dihydrofolic acid (F) (% area) ([1]; 24 months): 0.16 % area
- Related substances: N^10-CHO-folic acid (D) (% m/m) ([1]; 24 months): <0.10 % m/m
- Related substances: PABG (A) (% area) ([1]; 24 months): 0.13 % area
- Sum of all relates substances (% area) ([1]; 24 months): 0.66 % area
- Water content (%) ([1]; 24 months): 0.7%
- Assay of Levofolinic acid (% m/m) ([1]; 24 months): 99.4 % m/m
- Appearance ([1]; 24 months): Conform
- Aspect of a 1.0% m/V solution in Tris solution corrected at pH = 8.1: Absorbance at 420 nm ([1]; 36 months): 0.08
- Content of Dextrofolinic acid (H) ([1]; 36 months): <0.10%
- Optical rotation of a 1.0% m/V solution in Tris solution corrected at pH = 8.1 ([1]; 36 months): −14.9°
- Related substances: 5-CHO-4H-Pteroic acid (E) (% area) ([1]; 36 months): 0.33 % area
- Related substances: Any individual unknown impurities ([1]; 36 months): <0.10 % area
- Related substances: Dihydrofolic acid (G) (% area) ([1]; 36 months): <0.10 % area
- Related substances: Folic acid (C) (% area) ([1]; 36 months): <0.10 % area
- Related substances: N^5-N^10-diformyl-THF (B) (% area) ([1]; 36 months): <0.10 % area
- Related substances: N^10-CHO-dihydrofolic acid (F) (% area) ([1]; 36 months): 0.25 % area
- Related substances: N^10-CHO-folic acid (D) (% m/m) ([1]; 36 months): <0.10 % m/m
- Related substances: PABG (A) (% area) ([1]; 36 months): 0.16 % area
- Sum of all relates substances (% area) ([1]; 36 months): 0.73 % area
- Water content (%) ([1]; 36 months): 1.0%
- Assay of Levofolinic acid (% m/m) ([1]; 36 months): 99.6 % m/m
- Appearance ([1]; 36 months): Conform
- Stability (conclusion from stability data of tables 2 and 3) ([1]; may resist unaltered during a shelf-life of up to three years): stable
- Stability compared with known forms ([1]; versus calcium levofolinate of the known art or levofolinic acid amorphous of U.S. Pat. No. 5,134,235): better properties
- Solubility [2]: scarcely soluble
- Stability [3]: unstable
